Experimental data from article PMC4942611, “Promising Tools in Prostate Cancer Research: Selective Non-Steroidal Cytochrome P450 17A1 Inhibitors” (Scientific Reports, 2016).
Where two headings read alike, the source gives them in different places.

How the values were obtained:
[1] = target: T1, CYP17A1 (Homo sapiens, UniProt P05093); test: H295R cell assay, CYP17A1 hydroxylase and lyase activity; assay type: cell-based; conditions: for IC50: 48 hours, mean over 6 to 15 measurements ± standard error
T1 construct: endogenous in cells; host or cells: H295R
T1 sequence (P05093 1-508): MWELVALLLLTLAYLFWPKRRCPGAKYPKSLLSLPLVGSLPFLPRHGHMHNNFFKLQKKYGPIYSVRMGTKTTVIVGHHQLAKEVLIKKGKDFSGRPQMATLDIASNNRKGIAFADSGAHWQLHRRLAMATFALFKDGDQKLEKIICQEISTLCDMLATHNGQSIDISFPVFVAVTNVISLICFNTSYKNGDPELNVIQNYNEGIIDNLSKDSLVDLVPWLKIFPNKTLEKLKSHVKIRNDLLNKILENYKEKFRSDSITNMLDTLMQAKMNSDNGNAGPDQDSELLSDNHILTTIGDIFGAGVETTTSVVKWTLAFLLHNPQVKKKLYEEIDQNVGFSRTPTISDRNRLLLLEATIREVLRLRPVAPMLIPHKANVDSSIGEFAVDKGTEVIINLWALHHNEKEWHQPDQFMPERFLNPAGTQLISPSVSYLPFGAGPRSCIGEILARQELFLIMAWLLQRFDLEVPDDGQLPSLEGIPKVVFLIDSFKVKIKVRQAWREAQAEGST
Description: (§1) The H295R steroid hormone synthesis assay was performed according to the OECD validation guideline. Cells were cultured in DMEM/F12 media supplemented with 1% ITS-premix and 2.5% Nu-serum at 37 °C with a 5% CO2 atmosphere. The cells were only used for experiments between passage […]. During exposure experiments, cells were grown in 24 well plates with a density of 3 × 10^5 cells/mL. […] To avoid interference from low levels of steroid hormones present in the Nu-serum, the exposure experiment was conducted with serum-free media. Each compound was tested at a minimum of seven concentration levels using three or more replicates and the experiment was repeated on two different days (n = 6–15). On each test plate a solvent control (SC) (medium with 0.1% DMSO) was included in triplicate and the maximal concentration of DMSO in the cell medium was 0.1%[49]. After 48 hours of incubation in presence of the test compounds, 950 μL of the medium was carefully removed and internal standards (50 μl of 0.1 μg/μl solution containing deuterated steroid analogues) were added. Samples were stored at −20 °C for later analysis.
(§2) Steroid extraction and clean-up were performed by double protein precipitation. First, 900 μL of cold acetonitrile were added to the samples, which were then vortexed and centrifuged at ~9500 × g for 10 minutes. Second, 900 μL cold methanol was added to the supernatant and the mixture was vortexed and centrifuged at 1500 × g for 10 minutes. Finally, the supernatant was collected and concentrated to ~1 mL under a gentle stream of nitrogen at 60 °C.
(§3) For on-line solid phase extraction (SPE) of steroids, a total of 100 μL was injected on a binary 1290 Agilent Infinity Series system and a binary 1100 Agilent HPLC pump were used in combination (Agilent Technologies, Palo Alto, CA, USA). For online clean-up, a C18 enrichment column (μbondapak® C18, 3.9 × 20 mm, 10 μm, Waters) was used. The enrichment column was connected to the autosampler through the TTC switching valve (two positions, 6 ports). Between the autosampler and the TTC switching valve a 0.3 μm in-line filter (1290 infinity in-line filter, Agilent) was installed. Separation of steroid hormones was performed using a C18 analytical column (Kinetex, 2.6 μm C18 100 Å, 75 × 2.1 mm, Phenomenex, USA). An isocratic flow of 1 mL/min H2O:methanol:formic acid at 90:10:0.1 (v/v/v) was generated by the 1100 pump which was connected to the autosampler. The 1290 pump performed a gradient elution with a flow rate of 0.3 mL which was connected to the TTC switching valve. Mobile phase A and B were composed of H2O with 0.1% formic acid (v/v) and pure methanol, respectively. The elution gradient was maintained at 10% B for the first 2 min, changed to 10.0–30.0% from 2.0 to 2.2 min, 30.0–60.0% from 2.2 to 8.0 min, maintained at 60.0% from 8.0 to 10.0 min, increased to 60.0–85.0% from 10.0 to 12.30 min, 85.0–99.5% from 12.3 to 12.5 min and held at 99.5% from 12.5 to 14.8 min, before re-equilibrating the column until 16 minutes.
(§4) For detection, an AB SCIEX 4500 QTRAP mass spectrometer (Applied Biosystems, Foster City, CA, USA) equipped with an atmospheric pressure chemical ionization (APCI) Turbo V source was used. Multiple reaction monitoring (MRM) was performed in positive mode during the analysis with a targeted scan time of 0.8 sec. Nitrogen was applied as curtain, collision, and ion source gases.

[2] = test system: H295R cell line; test: H295R steroid hormone synthesis assay, production of steroidal hormones; assay type: cell-based, human; conditions: for IC50: Homo sapiens, NCI-H295R
Description: as §1, §2, §3, §4

[3] = Precipitation of compound in H295R exposure medium; assay type: physicochemical; conditions: H295R assay medium, 0.1% DMSO
Description: This cellular assay was also used to evaluate inhibitor selectivity.
as §1

[4] = test system: H295R cells; test: Cell viability, resazurin assay; assay type: cell-based, human
Excerpt: Cell viability was confirmed with the resazurin assay, as described by Nielsen et al.[50].

[5] = based on conversion of 17-OH-PRE into DHEA, read-out: IC50 lyase, H295R system
[6] = based on conversion of PRE into 17-OH-PRE, read-out: IC50 hydroxylase, H295R system
[7] = H295R, progestagens, EC200 ± standard error
[8] = H295R, androgens, read-out: AN IC50
[9] = H295R, androgens, read-out: DHEA IC50
[10] = H295R, androgens, read-out: TS IC50
[11] = H295R, corticosteroids, read-out: 11deoxy-COR IC50
[12] = H295R, corticosteroids, read-out: 11deoxy-COS IC50
[13] = H295R, corticosteroids, read-out: COR IC50
[14] = H295R, corticosteroids, read-out: CORNE IC50
[15] = H295R, estrogens, read-out: E1 IC50
[16] = H295R, estrogens, read-out: E-E2 IC50
[17] = H295R, progestagens, mean over 6 to 15 measurements ± standard error, read-out: PREG IC50
[18] = H295R, progestagens, read-out: 17OH-PREG IC50
[19] = H295R, progestagens, read-out: 17OH-PROG IC50

| SMILES | IC50 [1, 5] | IC50 [1, 6] | Effect on the CYP17A1 substrates pregnenolone and progesterone ([2]; H295R cells) | PREG EC200 [2, 7] | PROG EC200 [2, 7] | IC50 [2, 8] | IC50 [2, 9] | IC50 [2, 10] | IC50 [2, 11] | IC50 [2, 12] | IC50 [2, 13] | IC50 [2, 14] | IC50 [2, 15] | IC50 [2, 16] | IC50 [2, 17] | IC50 [2, 18] | IC50 [2, 19] | Concentration at which precipitation was observed [3] | also measured |
| --- | --- | --- | --- | --- | --- | --- | --- | --- | --- | --- | --- | --- | --- | --- | --- | --- | --- | --- | --- |
| Cc1ccc(-c2csc(-c3cccnc3)n2)c(C)c1 [Compound 1] | 0.094 ± 0.03 µM | 0.83 ± 0.08 µM | dose-dependent increases | 500 ± 70 nM | 146 ± 7 nM | 0.068 ± 0.002 µM | 0.094 ± 0.03 µM | 0.052 ± 0.002 µM | 0.48 ± 0.01 µM | 0.31 ± 0.06 µM | 1.2 ± 0.1 µM | 0.7 ± 0.1 µM | 0.22 ± 0.01 µM | 0.235 ± 0.006 µM | 0.39 ± 0.07 µM | 0.83 ± 0.08 µM | 0.8 ± 0.2 µM | around 10 μM | 11deoxy-COS EC200 ([2]; H295R, EC200 ± standard error): 146 ± 4 nM; COS EC200 ([2]; H295R, EC200 ± standard error): 56 ± 1 nM; IC50 ([2]; H295R cells, read-out: IC50 values for progestagens and corticosteroids (range)): 0.3 to 1.2 µM |
| C[C@]12CC[C@H](O)CC1=CC[C@@H]1[C@@H]2CC[C@]2(C)C(c3cccnc3)=CC[C@@H]12 [abiraterone, reference compound] | – | 0.0094 ± 0.0003 µM | – | 7.3 ± 0.3 nM | 1.0 ± 0.1 nM | 0.0005 µM | 0.0018 ± 0.0001 µM | 0.0002 µM | 0.0053 ± 0.0001 µM | – | 0.005 ± 0.0004 µM | 0.0025 ± 0.0001 µM | 0.0008 ± 0.0001 µM | 0.408 ± 0.06 µM | 0.0059 ± 0.0005 µM | 0.0097 ± 0.0003 µM | 0.0063 ± 0.0002 µM | – | Inhibitor concentrations at which CYP17A1 is inhibited (only CYP17A1 affected) ([1]; H295R cells): 2.5 to 10 nM; IC50 ([2]; H295R, progestagens, mean over 6 to 15 measurements ± standard error, read-out: PROG IC50): 0.181 ± 0.005 µM; IC50 ([2]; H295R, calculated on low concentrations of abiraterone (first part of the Gaussian-like curve), read-out: 11deoxy-COS IC50): 0.0026 ± 0.0005 µM; IC50 ([2]; H295R, calculated on low concentrations of abiraterone (first part of the Gaussian-like curve), read-out: COS IC50): 0.0029 ± 0.0005 µM; IC50 ([2]; H295R, calculated using high concentrations of abiraterone (second part of the Gaussian-like curve), read-out: 11deoxy-COS IC50): 0.24 ± 0.02 µM; Concentration at which cells were not viable [4]: 10 µM |
| CCCn1nnc2cc(-c3cc(-c4ccncc4)c(C#N)c(N)n3)ccc21 [Compound 2] | 0.0074 ± 0.0001 µM | 0.052 ± 0.004 µM | dose-dependent increases | 19 ± 4 nM | 32 ± 4 nM | 0.0043 ± 0.0001 µM | 0.0074 ± 0.0001 µM | 0.0033 ± 0.0002 µM | 0.054 ± 0.005 µM | 0.0238 ± 0.0009 µM | 0.036 ± 0.004 µM | 0.023 ± 0.001 µM | 0.019 ± 0.003 µM | 0.05 ± 0.01 µM | 0.015 ± 0.003 µM | 0.052 ± 0.004 µM | 0.02 ± 0.001 µM | 60 µM | IC50 ([2]; H295R, corticosteroids, read-out: COS IC50): 0.036 ± 0.004 µM |
